# The source made the active and inactive calls.
# Assays:
# Streptokinase A = target: T1, Streptokinase A (Streptococcus pyogenes serotype M1, UniProt P10520); assay: S. pyogenes streptokinase expression inhibitors, potency, dose response, plasminogen activation absorbance, OD405 (AID 1914); type: functional, Streptococcus pyogenes M1 GAS;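 further: secreted streptokinase activity via plasminogen activation per viability signal from cell pellet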
# T1 sequence (P10520 whole entry): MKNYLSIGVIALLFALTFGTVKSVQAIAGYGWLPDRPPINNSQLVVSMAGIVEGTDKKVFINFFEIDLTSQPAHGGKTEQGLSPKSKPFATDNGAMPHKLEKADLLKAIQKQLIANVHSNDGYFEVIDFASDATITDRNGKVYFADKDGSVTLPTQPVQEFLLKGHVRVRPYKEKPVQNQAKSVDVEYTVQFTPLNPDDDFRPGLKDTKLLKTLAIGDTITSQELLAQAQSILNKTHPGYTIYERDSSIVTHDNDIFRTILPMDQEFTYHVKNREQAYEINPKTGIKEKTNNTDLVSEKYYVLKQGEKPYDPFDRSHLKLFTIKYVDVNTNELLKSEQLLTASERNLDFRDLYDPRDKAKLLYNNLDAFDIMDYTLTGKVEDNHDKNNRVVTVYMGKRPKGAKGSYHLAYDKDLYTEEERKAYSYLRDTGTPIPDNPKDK
# [1] = target: Disintegrin and metalloproteinase domain-containing protein 17 (Homo sapiens, UniProt P78536); assay: ADAM17 protease inhibitors, dose response, counter-screen for ADAM10 exosite inhibitor project, biochemical, quenched FRET substrate (AID 743253)
# Chain of Disintegrin and metalloproteinase domain-containing protein 17 (P78536 whole entry, the tested form may be a part): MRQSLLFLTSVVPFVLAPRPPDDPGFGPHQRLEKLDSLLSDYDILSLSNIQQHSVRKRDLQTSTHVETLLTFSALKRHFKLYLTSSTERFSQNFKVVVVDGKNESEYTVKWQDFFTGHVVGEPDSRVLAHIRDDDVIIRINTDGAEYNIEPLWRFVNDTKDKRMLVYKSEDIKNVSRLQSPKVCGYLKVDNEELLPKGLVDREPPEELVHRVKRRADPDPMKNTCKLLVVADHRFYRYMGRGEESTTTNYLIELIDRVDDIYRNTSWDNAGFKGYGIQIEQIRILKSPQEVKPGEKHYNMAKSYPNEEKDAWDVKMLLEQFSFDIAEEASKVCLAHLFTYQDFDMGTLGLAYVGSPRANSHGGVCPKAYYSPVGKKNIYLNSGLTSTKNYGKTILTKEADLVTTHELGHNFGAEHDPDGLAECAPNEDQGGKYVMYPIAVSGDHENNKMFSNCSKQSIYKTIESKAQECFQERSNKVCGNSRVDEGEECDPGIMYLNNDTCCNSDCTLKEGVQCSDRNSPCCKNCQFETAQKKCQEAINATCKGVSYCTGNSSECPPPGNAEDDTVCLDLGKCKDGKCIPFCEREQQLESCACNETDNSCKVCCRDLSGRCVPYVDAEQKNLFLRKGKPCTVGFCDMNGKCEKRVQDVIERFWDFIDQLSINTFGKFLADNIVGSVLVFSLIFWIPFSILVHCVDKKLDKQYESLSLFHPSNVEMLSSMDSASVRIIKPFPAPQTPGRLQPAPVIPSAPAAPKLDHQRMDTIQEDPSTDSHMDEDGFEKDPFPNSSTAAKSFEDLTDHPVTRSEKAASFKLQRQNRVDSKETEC
# [2] = microbe, parasite or virus in culture; type: functional; conditions: Mycobacterium tuberculosis
# Streptococcus = assay: Group A Streptococcus viability loss, dose response, counter-screen for streptokinase expression inhibitor project, luminescence, BacTiterGlo (AID 1915); type: functional, organism-based;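 further: potency for reduction of bacterial viability or growth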
# [3] = test system: Streptococcus sp. 'group A'; assay: growth inhibition of control SK(-) GAS strain, dose response, counter-screen for streptokinase expression inhibitor project, luminescence, kanamycin, BacTiterGlo, confirmation (AID 1900); type: functional, organism-based
# [4] = Luminescence Cell-Based Dose Retest to Confirm Inhibitors of Cancer Stem Cells. [Related pubchem assays (depositor defined):AID2717, AID2721]; type: functional; conditions: Homo sapiens
# [5] = target: Mitogen-activated protein kinase 10 (Homo sapiens, UniProt P53779); assay: Dose response biochemical screening assay for inhibitors of c-Jun N-Terminal Kinase 3 (JNK3). [Related pubchem assays: 746 ]
# fMet-Leu-Phe receptor = target: T2, fMet-Leu-Phe receptor (Homo sapiens, UniProt P21462); assay: FPR ligands, dose response (AID 519); type: functional
# T2 sequence (P21462 whole entry): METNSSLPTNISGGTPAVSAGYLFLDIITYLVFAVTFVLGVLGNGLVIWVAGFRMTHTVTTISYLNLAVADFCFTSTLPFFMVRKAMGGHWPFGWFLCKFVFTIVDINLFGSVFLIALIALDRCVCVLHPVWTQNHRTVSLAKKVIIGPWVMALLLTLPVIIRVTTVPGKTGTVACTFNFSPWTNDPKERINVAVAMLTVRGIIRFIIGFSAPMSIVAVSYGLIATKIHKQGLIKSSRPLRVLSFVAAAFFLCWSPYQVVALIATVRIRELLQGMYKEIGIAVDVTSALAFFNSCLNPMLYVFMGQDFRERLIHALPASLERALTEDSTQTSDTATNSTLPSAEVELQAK
# Cytochrome P450 2D6 = Cytochrome P450 2D6 (Homo sapiens, UniProt P10635);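 further: CYP2D6 member of a cytochrome P450 panel assay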
# Cytochrome P450 1A2 = target: T3, Cytochrome P450 1A2 (Homo sapiens, UniProt P05177);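 further: PubChem cytochrome P450 panel assay, CYP1A2 panel member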
# T3 sequence (P05177 whole entry): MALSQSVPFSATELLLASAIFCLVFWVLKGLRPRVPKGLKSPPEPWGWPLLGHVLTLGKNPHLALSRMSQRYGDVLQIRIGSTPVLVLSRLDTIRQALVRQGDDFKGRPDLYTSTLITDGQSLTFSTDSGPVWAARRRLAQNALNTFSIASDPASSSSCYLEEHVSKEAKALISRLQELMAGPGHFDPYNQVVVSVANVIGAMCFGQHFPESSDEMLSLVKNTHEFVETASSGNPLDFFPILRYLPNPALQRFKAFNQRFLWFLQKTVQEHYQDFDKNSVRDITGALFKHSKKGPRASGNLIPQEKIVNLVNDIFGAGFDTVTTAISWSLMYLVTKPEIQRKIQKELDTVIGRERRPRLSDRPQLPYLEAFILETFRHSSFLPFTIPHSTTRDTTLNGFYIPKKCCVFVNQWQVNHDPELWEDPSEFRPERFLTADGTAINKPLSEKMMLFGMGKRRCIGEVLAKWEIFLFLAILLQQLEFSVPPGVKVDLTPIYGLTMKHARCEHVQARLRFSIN
# Kallikrein-7 = Kallikrein-7 (Homo sapiens, UniProt P49862); assay: Fluorescence Intensity-based biochemical primary high throughput dose response assay to identify activators of kallikrein-7 (K7) zymogen.
# Chain of Kallikrein-7 (P49862 whole entry): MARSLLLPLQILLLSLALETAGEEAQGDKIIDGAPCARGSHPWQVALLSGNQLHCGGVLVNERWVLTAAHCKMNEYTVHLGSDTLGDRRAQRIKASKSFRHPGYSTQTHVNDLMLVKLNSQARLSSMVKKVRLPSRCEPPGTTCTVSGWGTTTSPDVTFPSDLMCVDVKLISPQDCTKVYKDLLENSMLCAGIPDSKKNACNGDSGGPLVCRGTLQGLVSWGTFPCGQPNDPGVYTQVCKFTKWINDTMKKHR
# Aminopeptidase N = target: T4, Aminopeptidase N (Plasmodium falciparum FcB1/Columbia, UniProt O96935); assay: P. falciparum M1AAP inhibitors, biochemical, fluorogenic H-Leu-NHMec substrate, 1536-well (AID 1445); design: species or system Plasmodium falciparum 3D7, 3D7
# T4 sequence (O96935 whole entry): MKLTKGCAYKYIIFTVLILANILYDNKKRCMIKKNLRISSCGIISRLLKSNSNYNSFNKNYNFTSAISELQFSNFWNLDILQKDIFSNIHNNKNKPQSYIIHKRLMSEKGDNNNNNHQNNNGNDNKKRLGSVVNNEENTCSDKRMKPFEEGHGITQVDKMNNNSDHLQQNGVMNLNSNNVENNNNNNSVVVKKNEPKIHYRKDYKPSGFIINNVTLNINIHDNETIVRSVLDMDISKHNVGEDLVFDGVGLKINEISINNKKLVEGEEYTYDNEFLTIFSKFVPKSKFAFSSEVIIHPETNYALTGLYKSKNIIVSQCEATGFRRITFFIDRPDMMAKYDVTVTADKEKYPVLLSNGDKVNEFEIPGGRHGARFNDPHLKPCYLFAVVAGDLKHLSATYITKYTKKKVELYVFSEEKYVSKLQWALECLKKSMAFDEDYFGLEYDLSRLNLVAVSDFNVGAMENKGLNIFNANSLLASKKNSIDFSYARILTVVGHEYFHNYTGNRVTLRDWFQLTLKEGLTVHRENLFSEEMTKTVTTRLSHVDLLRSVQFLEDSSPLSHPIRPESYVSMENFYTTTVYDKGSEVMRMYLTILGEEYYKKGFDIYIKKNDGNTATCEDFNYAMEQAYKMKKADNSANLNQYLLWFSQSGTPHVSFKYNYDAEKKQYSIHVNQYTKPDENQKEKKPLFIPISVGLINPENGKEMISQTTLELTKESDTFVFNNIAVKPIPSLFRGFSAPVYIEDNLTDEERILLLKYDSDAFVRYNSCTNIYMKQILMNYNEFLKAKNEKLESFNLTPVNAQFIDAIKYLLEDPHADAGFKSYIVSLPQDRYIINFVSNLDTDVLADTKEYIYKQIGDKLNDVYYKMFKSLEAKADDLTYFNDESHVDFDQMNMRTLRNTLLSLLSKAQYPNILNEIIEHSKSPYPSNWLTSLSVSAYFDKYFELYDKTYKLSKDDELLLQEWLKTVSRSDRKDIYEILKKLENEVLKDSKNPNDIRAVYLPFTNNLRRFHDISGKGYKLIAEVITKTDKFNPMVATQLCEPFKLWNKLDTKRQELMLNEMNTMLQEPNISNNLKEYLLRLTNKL
# [6] = target: Endoplasmic reticulum aminopeptidase 1 (Homo sapiens, UniProt Q9NZ08); assay: ERAP1 aminopeptidase inhibitors, dose response, biochemical, cherry-pick, set 2, plate reader (AID 743314)
# cells = conditions: HEK293
# [7] = control 3'UTR Renilla luciferase suppression, dose response, counter-screen for Shn3 inhibitor project, cell-based, Clone20-Shn3RL, cherry-picked (AID 624133); type: functional
# [8] = reduction of Shn3 3'UTR firefly luciferase signal, dose response, Schnurri-3 inhibitor project, cell-based, Clone20 osteoblasts, cherry-pick, set 2 (AID 720490); type: functional;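 further: actives lower the luminescence signal as inhibitors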
# [9] = Shn3 3'UTR reporter inhibitors, dose response, cell-based, Clone20 osteoblasts, firefly luciferase, cherry-picked (AID 624132); type: functional;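 further: firefly luciferase luminescence from reporter carrying the Shn3 3'UTR in osteoblasts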
# [10] = target: Peroxisome proliferator-activated receptor gamma/Nuclear receptor coactivator 2 (Homo sapiens, UniProt P37231); assay: TR-FRET dose response biochemical High Throughput Screening assay for agonists of the steroid receptor coactivator 2 (SRC-2) recruitment by the peroxisome proliferator-activated receptor gamma (PPAR gamma): non-selective agonists. [Related pubchem assays: 1297, 1032 ]; type: functional
# Chain of Peroxisome proliferator-activated receptor gamma/Nuclear receptor coactivator 2 (P37231 whole entry): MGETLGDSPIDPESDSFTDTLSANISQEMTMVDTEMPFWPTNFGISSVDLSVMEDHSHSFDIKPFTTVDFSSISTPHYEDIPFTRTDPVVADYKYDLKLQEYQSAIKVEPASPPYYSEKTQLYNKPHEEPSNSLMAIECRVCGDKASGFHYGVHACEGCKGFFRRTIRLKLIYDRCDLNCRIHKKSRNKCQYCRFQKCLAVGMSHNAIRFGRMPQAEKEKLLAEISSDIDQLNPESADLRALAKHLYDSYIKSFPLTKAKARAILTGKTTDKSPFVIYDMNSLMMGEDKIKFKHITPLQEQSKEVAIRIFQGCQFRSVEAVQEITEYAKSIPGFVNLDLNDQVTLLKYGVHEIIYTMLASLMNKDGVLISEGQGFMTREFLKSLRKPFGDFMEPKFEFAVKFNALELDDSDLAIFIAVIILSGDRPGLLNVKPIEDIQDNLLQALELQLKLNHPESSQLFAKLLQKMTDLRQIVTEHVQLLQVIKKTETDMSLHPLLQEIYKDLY
# Chain of Peroxisome proliferator-activated receptor gamma/Nuclear receptor coactivator 2 (Q15596 whole entry, further chain): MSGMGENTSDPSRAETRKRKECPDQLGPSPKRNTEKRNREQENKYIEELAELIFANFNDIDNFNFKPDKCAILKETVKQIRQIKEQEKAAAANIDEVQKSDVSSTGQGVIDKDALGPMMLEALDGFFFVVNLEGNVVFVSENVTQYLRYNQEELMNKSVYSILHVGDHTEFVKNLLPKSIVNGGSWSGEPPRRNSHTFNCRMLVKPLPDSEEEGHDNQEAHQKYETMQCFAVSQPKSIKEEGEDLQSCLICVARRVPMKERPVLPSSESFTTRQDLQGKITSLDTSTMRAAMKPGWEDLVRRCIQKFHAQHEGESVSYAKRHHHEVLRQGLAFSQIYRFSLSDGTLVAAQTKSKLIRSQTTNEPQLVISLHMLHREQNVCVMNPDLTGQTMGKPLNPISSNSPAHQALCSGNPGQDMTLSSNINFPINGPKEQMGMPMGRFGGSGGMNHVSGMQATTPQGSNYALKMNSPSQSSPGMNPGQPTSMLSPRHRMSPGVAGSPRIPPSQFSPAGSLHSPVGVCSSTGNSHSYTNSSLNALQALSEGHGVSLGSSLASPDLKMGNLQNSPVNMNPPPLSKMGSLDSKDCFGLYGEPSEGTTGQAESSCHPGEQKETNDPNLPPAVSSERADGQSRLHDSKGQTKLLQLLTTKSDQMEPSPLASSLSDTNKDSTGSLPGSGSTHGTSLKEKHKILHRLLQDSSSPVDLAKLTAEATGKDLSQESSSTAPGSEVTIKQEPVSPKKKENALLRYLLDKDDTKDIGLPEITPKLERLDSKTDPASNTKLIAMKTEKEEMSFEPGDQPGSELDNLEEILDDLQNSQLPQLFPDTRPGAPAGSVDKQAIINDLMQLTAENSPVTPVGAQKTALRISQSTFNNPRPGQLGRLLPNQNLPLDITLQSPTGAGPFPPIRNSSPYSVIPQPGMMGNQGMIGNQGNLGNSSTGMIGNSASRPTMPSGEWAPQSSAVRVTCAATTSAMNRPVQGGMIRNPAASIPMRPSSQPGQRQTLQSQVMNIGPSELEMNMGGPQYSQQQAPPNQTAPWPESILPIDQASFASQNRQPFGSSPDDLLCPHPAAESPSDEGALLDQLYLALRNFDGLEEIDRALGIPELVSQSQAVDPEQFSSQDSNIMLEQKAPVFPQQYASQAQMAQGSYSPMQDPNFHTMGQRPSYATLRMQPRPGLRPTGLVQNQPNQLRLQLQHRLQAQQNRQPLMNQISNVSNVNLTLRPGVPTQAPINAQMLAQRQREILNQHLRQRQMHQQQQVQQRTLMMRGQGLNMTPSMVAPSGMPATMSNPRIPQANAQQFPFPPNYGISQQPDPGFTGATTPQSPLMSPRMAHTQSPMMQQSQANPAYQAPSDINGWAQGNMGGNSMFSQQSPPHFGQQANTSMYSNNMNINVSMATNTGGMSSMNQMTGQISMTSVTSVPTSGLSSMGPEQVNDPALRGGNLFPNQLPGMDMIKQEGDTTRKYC
# [11] = target: Peroxisome proliferator-activated receptor gamma/Nuclear receptor coactivator 1 (Homo sapiens, UniProt P37231); assay: TR-FRET dose response biochemical High Throughput Screening assay for agonists of the steroid receptor coactivator 1 (SRC-1) recruitment by the peroxisome proliferator-activated receptor gamma (PPAR gamma): non-selective agonists. [Related pubchem assays (depositor defined):AID1300, AID1808, AID504735, AID631]; type: protein assay
# Chain of Peroxisome proliferator-activated receptor gamma/Nuclear receptor coactivator 1 (P37231 whole entry): as the sequence (P37231 whole entry) above
# Chain of Peroxisome proliferator-activated receptor gamma/Nuclear receptor coactivator 1 (Q15788 whole entry, further chain): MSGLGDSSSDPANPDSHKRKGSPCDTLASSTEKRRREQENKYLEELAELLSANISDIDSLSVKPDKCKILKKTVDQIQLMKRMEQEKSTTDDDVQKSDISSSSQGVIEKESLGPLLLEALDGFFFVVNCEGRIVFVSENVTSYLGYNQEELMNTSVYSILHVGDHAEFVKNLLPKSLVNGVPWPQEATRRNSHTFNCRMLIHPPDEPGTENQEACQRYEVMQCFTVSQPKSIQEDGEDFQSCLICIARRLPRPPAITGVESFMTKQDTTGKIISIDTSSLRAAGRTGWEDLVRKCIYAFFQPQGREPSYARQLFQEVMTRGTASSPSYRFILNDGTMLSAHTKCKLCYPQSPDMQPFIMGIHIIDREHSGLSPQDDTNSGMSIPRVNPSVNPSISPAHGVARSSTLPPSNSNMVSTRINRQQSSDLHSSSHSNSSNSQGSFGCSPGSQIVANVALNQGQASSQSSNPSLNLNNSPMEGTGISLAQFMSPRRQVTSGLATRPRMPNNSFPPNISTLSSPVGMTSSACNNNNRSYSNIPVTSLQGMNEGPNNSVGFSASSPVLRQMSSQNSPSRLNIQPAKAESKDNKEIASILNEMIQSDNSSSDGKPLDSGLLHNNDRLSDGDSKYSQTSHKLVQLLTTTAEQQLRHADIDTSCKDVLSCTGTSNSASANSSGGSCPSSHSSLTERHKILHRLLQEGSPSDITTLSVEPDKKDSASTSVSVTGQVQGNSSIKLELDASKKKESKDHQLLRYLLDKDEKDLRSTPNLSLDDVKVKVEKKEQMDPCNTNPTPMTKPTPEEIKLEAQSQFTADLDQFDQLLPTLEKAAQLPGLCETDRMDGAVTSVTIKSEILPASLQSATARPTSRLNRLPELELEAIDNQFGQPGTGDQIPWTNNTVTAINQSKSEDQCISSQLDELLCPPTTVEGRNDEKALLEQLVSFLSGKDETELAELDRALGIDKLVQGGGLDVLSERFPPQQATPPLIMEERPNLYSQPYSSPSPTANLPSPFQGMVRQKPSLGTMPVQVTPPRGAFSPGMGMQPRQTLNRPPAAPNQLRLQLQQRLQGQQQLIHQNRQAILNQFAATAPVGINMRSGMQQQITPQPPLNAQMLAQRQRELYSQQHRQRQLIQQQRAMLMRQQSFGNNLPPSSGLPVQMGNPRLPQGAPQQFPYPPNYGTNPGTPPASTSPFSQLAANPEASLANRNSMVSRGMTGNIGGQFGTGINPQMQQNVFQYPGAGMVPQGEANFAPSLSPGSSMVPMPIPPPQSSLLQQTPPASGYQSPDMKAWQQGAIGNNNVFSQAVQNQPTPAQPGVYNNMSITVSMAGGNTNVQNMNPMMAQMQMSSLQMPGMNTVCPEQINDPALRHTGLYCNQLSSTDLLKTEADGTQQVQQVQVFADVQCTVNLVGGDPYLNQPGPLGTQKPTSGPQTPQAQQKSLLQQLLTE
# [12] = target: Peroxisome proliferator-activated receptor gamma/Nuclear receptor coactivator 3 (Homo sapiens, UniProt P37231); assay: TR-FRET dose response biochemical High Throughput Screening assay for agonists of the steroid receptor coactivator 3 (SRC-3) recruitment by the peroxisome proliferator-activated receptor gamma (PPAR gamma): non-selective agonists. [Related pubchem assays: 1301 (Confirmation screen.), 1048 (Primary screen.)]; type: functional
# Protein skinhead-1 = target: T5, Protein skinhead-1 (Caenorhabditis elegans, UniProt P34707); type: functional
# T5 sequence (P34707 whole entry): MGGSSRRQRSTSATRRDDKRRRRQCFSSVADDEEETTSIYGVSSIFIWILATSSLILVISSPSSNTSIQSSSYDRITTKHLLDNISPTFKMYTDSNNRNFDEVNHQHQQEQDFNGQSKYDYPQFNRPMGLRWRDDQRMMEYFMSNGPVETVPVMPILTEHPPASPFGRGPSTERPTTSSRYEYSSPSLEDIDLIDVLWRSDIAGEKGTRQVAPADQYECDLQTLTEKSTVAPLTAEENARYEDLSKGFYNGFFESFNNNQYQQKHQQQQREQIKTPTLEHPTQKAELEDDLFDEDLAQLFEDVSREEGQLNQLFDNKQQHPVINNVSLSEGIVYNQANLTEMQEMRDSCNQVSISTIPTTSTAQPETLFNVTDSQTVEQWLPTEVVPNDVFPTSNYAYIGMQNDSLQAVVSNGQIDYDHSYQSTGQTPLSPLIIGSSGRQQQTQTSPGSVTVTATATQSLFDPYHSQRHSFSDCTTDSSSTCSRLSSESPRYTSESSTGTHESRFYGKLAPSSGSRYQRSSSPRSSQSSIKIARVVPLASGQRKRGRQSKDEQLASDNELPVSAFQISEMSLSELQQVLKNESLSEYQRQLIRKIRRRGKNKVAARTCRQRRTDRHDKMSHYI
# [13] = NIH-3T3 fibroblast cytotoxicity, dose response, cytotoxicity control, cell-based, fluorescence, Alamar Blue, secondary assay (AID 2327); type: functional;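 further: NIH-3T3 mouse fibroblasts cultured with fluconazole at 8 µg/mL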
# [14] = C. albicans growth with fluconazole, confirmation, fluorescence, retest (AID 2467); type: functional, cell-based
# [15] = NIH:OVCAR-3 ovarian cancer cell cytotoxicity, dose response, PAX8 inhibitor project, plate reader, dry powder samples (AID 743044); type: functional, cell-based
# Paired box protein Pax-8 = Paired box protein Pax-8 (Homo sapiens, UniProt Q06710); assay: inhibitors of PAX8-driven TPO luciferase reporter, dose response, RMG-I cells, cherry-pick (AID 687027); type: functional, cell-based;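 further: luciferase reporter driven by Pax8 target thyroperoxidase promoter measured by SteadyGlo luminescence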
# [16] = cytotoxicity in OVCAR8 ovarian cancer cells, dose response, PAX8 project, cell-based, plate reader, dry powder samples (AID 743197); type: functional; conditions: OVCAR-8
# [17] = A2780 ovarian cancer cell cytotoxicity, dose response, cytotoxicity control, plate reader, dry powder samples (AID 743046); type: functional, cell-based
# [18] = A375 melanoma cell cytotoxicity, dose response, counter-screen for MITF inhibitor project, CellTiter-Glo luminescence, dry powder, set 2 (AID 624489); type: functional, cell-based; conditions: A-375;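 further: actives are compounds lowering A375 viability meaning general cytotoxicity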
# [19] = A375 melanoma cell viability loss, dose response, counter-screen for MITF inhibitor project, CellTiter-Glo luminescence, dry powder, set 4 (AID 624364); type: functional, cell-based; conditions: A-375;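 further: A375 melanoma cells are MITF independent so this is a counter screen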
compound,measurement,setting,value
O=C(Nc1ccc(OCC(F)(F)C(F)F)c(C(F)(F)F)c1)c1ccc(Cl)cc1,EC50,Streptokinase A,1.77 µM (active)
same,IC50,[1],> 69.5 µM (inactive)
same,CC50,[2],13.4 µM (active)
same,EC50,Streptococcus,7.49 µM (active)
same,EC50,[3],5.77 µM (active)
same,AC50,[4],3.52 µM (active)
Cc1ccc(C(=O)C2=C(O)C(=O)N(CCCn3ccnc3)C2c2ccc(OC(C)C)cc2)o1 (centres undefined),IC50,[5],37.4 µM (not active)
same,Ki,fMet-Leu-Phe receptor,> 66.7 µM (inactive)
same,AC50,Cytochrome P450 2D6,12.6 µM (inconclusive)
same,AC50,Cytochrome P450 1A2,39.8 µM (inconclusive)
O=c1c(-c2ccccc2)coc2c(CN3CCOCC3)c(O)ccc12,EC50,Kallikrein-7,12.4 µM (inactive)
Cc1cc(=O)oc2c(CN3CCN(C)CC3)c(O)c(Cl)cc12,IC50,Aminopeptidase N,33.6 µM (active)
same,AC50,[6],6.77 µM (active)
CCCOc1c(Br)cc(C2C3=C(CCCC3=O)N(C)C3=C2C(=O)CCC3)cc1OC,AC50,cells,> 52 µM (inactive)
Cc1nn2c(O)c3c(nc2c1-c1ccccc1)CCC3,Ki,fMet-Leu-Phe receptor,20.4 µM (inactive)
COc1ccccc1NC(=O)Cn1cc(C(=O)C2CC2)c2ccccc21,AC50,[7],29 µM (active)
same,AC50,[8],6.08 µM (active)
same,AC50,[9],4.76 µM (active)
COc1ccc(C(=O)C2=C(O)C(=O)N(c3nc(C)c(C)s3)C2c2ccco2)cc1 (centres undefined),Ki,fMet-Leu-Phe receptor,> 66.7 µM (inactive)
same,EC50,[10],37.9 µM (not active)
same,EC50,[11],> 79.4 µM (inactive)
same,EC50,[12],> 79.4 µM (not active)
CCc1cccc(C)c1N=C(S)NCc1ccc2c(c1)cc(C)n2C,AC50,cells,> 52 µM (inactive)
same,IC50,Protein skinhead-1,> 100 µM (inactive)
same,EC50,[13],51.5 µM (active)
same,EC50,[14],> 38 µM (not active)
C[C@@H]1CCCCO[C@H](CN(C)C(=O)Cc2ccccc2)[C@@H](C)CN([C@@H](C)CO)C(=O)c2cc(NC(=O)Nc3ccc(C(F)(F)F)cc3)ccc2O1,AC50,[15],54.5 µM (active)
same,AC50,Paired box protein Pax-8,2.85 µM (active)
same,AC50,[16],58.8 µM (active)
same,AC50,[17],54.7 µM (active)
NC1=C(c2ccc(OC(F)(F)F)cc2)C(=O)c2ccccc2C1=O,AC50,[18],> 70 µM (inactive)
same,AC50,[19],> 70 µM (inactive)
CC(=O)N(C)C1=C(N2CCCCC2)C(=O)c2ccccc2C1=O,AC50,[18],14.8 µM (active)
same,AC50,[19],27.1 µM (active)
